From US10376520B2, “Methods for the treatment of cardiovascular disorders” (Galapagos NV, priority 2015, dated 2019)

Experiments:
RA patients = test: Paraoxonase assay (PON1), Study 4; type: in vivo, human; conditions: for PON1 level, 4 weeks CFB: 4 weeks change from baseline
Procedure: Randomized double-blind, placebo-controlled add on study in subjects with active RA who have an inadequate response to MTX monotherapy, in combination with methotrexate, administered for 4 weeks in the treatment of subjects with active rheumatoid arthritis who have an inadequate response to methotrexate alone.
Compound 1 (dosed as a [Compound 1:HCl:3H2O]) capsules administered orally in 30 mg, 75 mg, 150 mg, or 300 mg doses per day for 4 weeks.
Paraoxanases are involved, in particular PON1 have a role in preventing atherosclerosis.
The PON assay is performed according to published protocol by Mackness et al. (Mackness et al., 2003).

[1] = test system: Japanese and Caucasian healthy subjects; test: Total cholesterol determination, Study 3 (healthy volunteers); type: in vivo, human; conditions: for [Total cholesterol] % Mean % variation vs baseline 10 days: 200 mg q.d.; for [Total cholesterol] levels: Study 3
Procedure: Randomized, double-blind, placebo-controlled study for the assessment of safety, tolerability, pharmacokinetics, and pharmacodynamics, of multiple oral doses of Compound 1 (dosed as a [Compound 1:HCl:3H2O]) in Japanese and Caucasian healthy subjects.
Randomized, double-blind, placebo-controlled, single center, sequential design study.
Compound 1 (dosed as a [Compound 1:HCl:3H2O]) is administered for 10 days as oral film-coated tablet (25 and 100 mg and matching placebos). Placebo are provided as a matching tablet.
The study drug is ingested with 240 mL water after a standardized breakfast on Days 2-9. On PK days (Day 1 and Day 10) the study drug is administered in a fasted state (subjects will receive lunch 4 h after dosing on Day 1 and Day 10).
10 Japanese subjects (6 active, 4 placebo) and 10 Caucasian subjects (6 active, 4 placebo) will receive once daily an oral dose of 200 mg Compound 1 (dosed as a [Compound 1:HCl:3H2O]) or matching placebo as two tablets of 100 mg or matching placebo for 10 days. For practical reasons, these subjects may be split over separate groups, each group consisting of an equal number of Japanese and Caucasian Compound 1 (dosed as a [Compound 1:HCl:3H2O]) treated subjects and Japanese and Caucasian placebo subjects.
This method is based on the determination of Δ^4 cholestenone after enzymatic cleavage of the cholesterol ester by cholesterol esterase, conversion of cholesterol by cholesterol oxidase, and subsequent measurement by the Trinder reaction of the hydrogen peroxide formed (Allain et al., 1974).
Cholesterol esters are cleaved by the action of cholesterol esterase to yield free cholesterol and fatty acids. Cholesterol oxidase then catalyzes the oxidation of cholesterol to cholest-4-en-3-one and hydrogen peroxide. In the presence of peroxidase, the hydrogen peroxide formed effects the oxidative coupling of phenol and 4-aminophenazone to form a red quinone-imine dye. The color intensity of the dye formed is directly proportional to the cholesterol concentration. It is determined by measuring the increase in absorbance.
Human serum and plasma samples cholesterol determination was done on a Roche/Hitachi Cobas c 701/702 system which automatically calculate the analyte concentration of each sample.

Compound: O=C(Nc1nc2cccc(-c3ccc(CN4CCS(=O)(=O)CC4)cc3)n2n1)C1CC1 [Compound 1, cyclopropanecarboxylic acid {5-[4-(1,1-dioxo-thiomorpholin-4-ylmethyl)-phenyl]-[1,2,4]triazolo[1,5-a]pyridin-2yl}-amide]
- PON1 level, 4 weeks CFB (RA patients; 30 mg q.d.): 4.2%
- PON1 level, 4 weeks CFB (RA patients; 75 mg q.d.): 11.2%
- PON1 level, Baseline (RA patients; 75 mg q.d.): 69.3 ng/mL
- PON1 level, week 4 (RA patients; 75 mg q.d.): 73.7 ng/mL
- PON1 level, 4 weeks CFB (RA patients; 150 mg q.d.): 43.4%
- PON1 level, Baseline (RA patients; 150 mg q.d.): 52.5 ng/mL
- PON1 level, week 4 (RA patients; 150 mg q.d.): 70.6 ng/mL
- PON1 level, 4 weeks CFB (RA patients; 300 mg q.d.): 31.0%
- PON1 level, week 4 (RA patients; 300 mg q.d.): 77.5 ng/mL
- [Total cholesterol] % Mean % variation vs baseline 10 days ([1]; Caucasian): −2.6%
- [Total cholesterol] % Mean % variation vs baseline 10 days ([1]; Japanese): −0.4%
- [Total cholesterol] levels ([1]; Caucasian 200 mg q.d. for 10 days, day 17): 4.57 mmol/L
- [Total cholesterol] levels ([1]; Caucasian 200 mg q.d., day 0): 4.77 mmol/L
- [Total cholesterol] levels ([1]; Caucasian 200 mg q.d., day 5): 4.5 mmol/L
- [Total cholesterol] levels ([1]; Caucasian 200 mg q.d., day 10): 4.53 mmol/L
- [Total cholesterol] levels ([1]; Japanese 200 mg q.d. for 10 days, day 17): 4.52 mmol/L
- [Total cholesterol] levels ([1]; Japanese 200 mg q.d., day 0): 4.47 mmol/L
- [Total cholesterol] levels ([1]; Japanese 200 mg q.d., day 5): 4.18 mmol/L
- [Total cholesterol] levels ([1]; Japanese 200 mg q.d., day 10): 4.45 mmol/L
